# Experimental data: PubChem BioAssay AID328 (DTP/NCI, 2004)
# Where “and” joins values, the source holds several entries; their conditions need not be identical. Identical values can stand only once. Toxic doses and inconclusive results are not listed.
# Test system: BDF1 mice, P388 leukemia ip, median survival T/C
# Assay: NCI In Vivo Anticancer Drug Screen. Data for tumor model P388 Leukemia (intraperitoneal) in B6D2F1 (BDF1) mice
# Conditions: endpoint: median survival time, higher = longer survival
# Outline: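 Vehicle-dosed animals serve as the reference; survival of compound-dosed, tumour-implanted mice is divided by it.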
# [1] = dose: 100.0 mg/kg/injection, schedule: Q04DX003 (ip), vehicle: saline with Tween-80
# [2] = dose: 200.0 mg/kg/injection, schedule: Q04DX003 (ip), vehicle: saline with Tween-80
# [3] = dose: 400.0 mg/kg/injection, schedule: Q04DX003 (ip), vehicle: saline with Tween-80
smiles,measurement,setting,value
CC[C@]1(O)C[C@H]2CN(CCc3c([nH]c4ccccc34)[C@@](C(=O)OC)(c3cc4c(cc3OC)N(C)[C@H]3[C@@](O)(C(=O)OC)[C@H](OC(C)=O)[C@]5(CC)C=CCN6CC[C@]43[C@@H]65)C2)C1,T/C,"dose: 0.03 mg/kg/injection, schedule: Q03HX024 (ip), vehicle: saline",185 % of control
same,T/C,"dose: 0.06 mg/kg/injection, schedule: Q03HX016 (ip), vehicle: saline",162 % of control
same,T/C,"dose: 0.12 mg/kg/injection, schedule: Q01DX009 (ip), vehicle: saline",166 % of control
same,T/C,"dose: 0.12 mg/kg/injection, schedule: Q01DX009 (ip), vehicle: water",252 % of control
same,T/C,"dose: 0.12 mg/kg/injection, schedule: Q03HX016 (ip), vehicle: saline",222 % of control
same,T/C,"dose: 0.12 mg/kg/injection, schedule: Q03HX024 (ip), vehicle: saline",222 % of control
same,T/C,"dose: 0.25 mg/kg/injection, schedule: Q01DX009 (ip), vehicle: saline",185 % of control
same,T/C,"dose: 0.25 mg/kg/injection, schedule: Q01DX009 (ip), vehicle: water",240 % of control
same,T/C,"dose: 0.25 mg/kg/injection, schedule: Q01DX010 (ip), vehicle: water",209 % of control
same,T/C,"dose: 0.25 mg/kg/injection, schedule: Q03HX008 (ip), vehicle: saline",185 % of control
same,T/C,"dose: 0.25 mg/kg/injection, schedule: Q03HX016 (ip), vehicle: saline",214 % of control
same,T/C,"dose: 0.25 mg/kg/injection, schedule: Q04DX003 (ip), vehicle: saline",166 % of control
same,T/C,"dose: 0.5 mg/kg/injection, schedule: Q01DX009 (ip), vehicle: saline",214 % of control
same,T/C,"dose: 0.5 mg/kg/injection, schedule: Q01DX009 (ip), vehicle: water",222 % of control
same,T/C,"dose: 0.5 mg/kg/injection, schedule: Q01DX010 (ip), vehicle: water",195 % of control
same,T/C,"dose: 0.5 mg/kg/injection, schedule: Q04DX003 (ip), vehicle: saline",196 % of control
same,T/C,"dose: 0.5 mg/kg/injection, schedule: Q08DX002 (ip), vehicle: saline",170 % of control
same,T/C,"dose: 0.65 mg/kg/injection, schedule: Q04DX003 (ip), vehicle: saline",200 % of control
same,T/C,"dose: 1.0 mg/kg/injection, schedule: Q01DX009 (ip), vehicle: saline",92 % of control
same,T/C,"dose: 1.0 mg/kg/injection, schedule: Q03HX008 (ip), vehicle: saline",200 % of control
same,T/C,"dose: 1.0 mg/kg/injection, schedule: Q03HX016 (ip), vehicle: saline",96 % of control
same,T/C,"dose: 1.0 mg/kg/injection, schedule: Q04DX003 (ip), vehicle: saline",214 % of control
same,T/C,"dose: 1.0 mg/kg/injection, schedule: Q08DX002 (ip), vehicle: saline",188 % of control
same,T/C,"dose: 1.08 mg/kg/injection, schedule: Q04DX003 (ip), vehicle: saline",193 % of control
same,T/C,"dose: 1.8 mg/kg/injection, schedule: Q04DX003 (ip), vehicle: saline",234 % of control
same,T/C,"dose: 2.0 mg/kg/injection, schedule: Q01DX001 (ip), vehicle: saline",162 % of control
same,T/C,"dose: 2.0 mg/kg/injection, schedule: Q01DX001 (ip), vehicle: water",150 % of control
same,T/C,"dose: 2.0 mg/kg/injection, schedule: Q04DX003 (ip), vehicle: saline",96 % of control
same,T/C,"dose: 2.0 mg/kg/injection, schedule: Q08DX002 (ip), vehicle: saline",214 % of control
same,T/C,"dose: 3.0 mg/kg/injection, schedule: Q04DX003 (ip), vehicle: saline",95 % of control
same,T/C,"dose: 4.0 mg/kg/injection, schedule: Q01DX001 (ip), vehicle: saline",185 % of control
same,T/C,"dose: 4.0 mg/kg/injection, schedule: Q01DX001 (ip), vehicle: water",161 % of control
same,T/C,"dose: 4.0 mg/kg/injection, schedule: Q08DX002 (ip), vehicle: saline",100 % of control
same,T/C,"dose: 8.0 mg/kg/injection, schedule: Q01DX001 (ip), vehicle: saline",177 % of control
same,T/C,"dose: 8.0 mg/kg/injection, schedule: Q08DX002 (ip), vehicle: saline",96 % of control
same,T/C,"dose: 16.0 mg/kg/injection, schedule: Q01DX001 (ip), vehicle: saline",188 % of control
same,T/C,"dose: 625.0 micrograms/kg/injection, schedule: Q04DX003 (ip), vehicle: saline",200 % of control
same,T/C,"dose: 648.0 micrograms/kg/injection, schedule: Q04DX003 (ip), vehicle: saline",180 % of control
same,T/C,"dose: 1080.0 micrograms/kg/injection, schedule: Q04DX003 (ip), vehicle: saline",195 % of control
same,T/C,"dose: 1250.0 micrograms/kg/injection, schedule: Q04DX003 (ip), vehicle: saline",238 % of control
same,T/C,"dose: 1800.0 micrograms/kg/injection, schedule: Q04DX003 (ip), vehicle: saline",190 % of control
same,T/C,"dose: 2500.0 micrograms/kg/injection, schedule: Q04DX003 (ip), vehicle: saline",230 % of control
CNC1C(O)C(OC2C(N)CC(N)C(OC3OC(CN)C(O)C(O)C3O)C2O)OCC1(C)O (stereo not drawn),T/C,"dose: 100.0 mg/kg/injection, schedule: Q01DX009 (ip), vehicle: saline",100 % of control
same,T/C,"dose: 200.0 mg/kg/injection, schedule: Q01DX009 (ip), vehicle: saline",91 % of control
same,T/C,"dose: 400.0 mg/kg/injection, schedule: Q01DX009 (ip), vehicle: saline",108 % of control
O=C(CCCCN1CCc2[nH]c3ccc(F)cc3c2C1)c1ccc(F)cc1,T/C,"dose: 100.0 mg/kg/injection, schedule: Q01DX001 (ip), vehicle: Klucel (hydroxypropylcellulose) (HPC)",116 % of control
same,T/C,"dose: 200.0 mg/kg/injection, schedule: Q01DX001 (ip), vehicle: Klucel (hydroxypropylcellulose) (HPC)",100 % of control
COC(=O)C(CCC(=O)O)NC(=O)OCc1ccccc1 (stereo not drawn),T/C,"dose: 25.0 mg/kg/injection, schedule: Q04DX003 (ip), vehicle: Klucel (hydroxypropylcellulose) (HPC)",104 % of control
same,T/C,"dose: 50.0 mg/kg/injection, schedule: Q04DX003 (ip), vehicle: Klucel (hydroxypropylcellulose) (HPC)",113 % of control
same,T/C,"dose: 100.0 mg/kg/injection, schedule: Q04DX003 (ip), vehicle: Klucel (hydroxypropylcellulose) (HPC)",95 % of control and 109 % of control
CC[n+]1ccc2cc(OC)c(OC)cc2c1Cc1ccc(OC)c(OC)c1,T/C,"dose: 25.0 mg/kg/injection, schedule: Q01DX009 (ip), vehicle: saline",109 % of control
same,T/C,"dose: 50.0 mg/kg/injection, schedule: Q01DX009 (ip), vehicle: saline",118 % of control
same,T/C,"dose: 50.0 mg/kg/injection, schedule: Q04DX003 (ip), vehicle: saline",90 % of control
same,T/C,"dose: 100.0 mg/kg/injection, schedule: Q04DX003 (ip), vehicle: saline",104 % of control
O=C1NC(Cc2ccccc2)C(=O)NC1Cc1ccccc1 (stereo not drawn),T/C,"dose: 6.25 mg/kg/injection, schedule: Q01DX009 (ip), vehicle: saline with Tween-80",106 % of control
same,T/C,"dose: 12.5 mg/kg/injection, schedule: Q01DX009 (ip), vehicle: saline with Tween-80",101 % of control
same,T/C,"dose: 25.0 mg/kg/injection, schedule: Q01DX009 (ip), vehicle: saline with Tween-80",108 % of control
O=C1c2ccccc2C(=O)N1CC(O)COc1ccccc1 (stereo not drawn),T/C,"dose: 75.0 mg/kg/injection, schedule: Q01DX001 (ip), vehicle: saline sonified",104 % of control
same,T/C,"dose: 150.0 mg/kg/injection, schedule: Q01DX001 (ip), vehicle: saline sonified",122 % of control
same,T/C,"dose: 300.0 mg/kg/injection, schedule: Q01DX001 (ip), vehicle: saline sonified",104 % of control
CC(c1ccccc1)N1COc2ccc3ccccc3c2C1 (stereo not drawn),T/C,"dose: 100.0 mg/kg/injection, schedule: Q01DX009 (ip), vehicle: saline with Tween-80",100 % of control
same,T/C,"dose: 200.0 mg/kg/injection, schedule: Q01DX009 (ip), vehicle: saline with Tween-80",104 % of control
same,T/C,"dose: 400.0 mg/kg/injection, schedule: Q01DX009 (ip), vehicle: saline with Tween-80",113 % of control
C=C1C(=O)OC2CC(C)C3CC(=O)C(C)=C3C(O)C12 (stereo not drawn),T/C,"dose: 25.0 mg/kg/injection, schedule: Q01DX009 (ip), vehicle: Klucel (hydroxypropylcellulose) (HPC)",120 % of control
same,T/C,"dose: 50.0 mg/kg/injection, schedule: Q01DX009 (ip), vehicle: Klucel (hydroxypropylcellulose) (HPC)",112 % of control
O=C(NC1=NN(c2ccccc2)C(=O)C1)Nc1ccccc1,T/C,"dose: 87.5 mg/kg/injection, schedule: Q01DX009 (ip), vehicle: saline with Tween-80",110 % of control
same,T/C,"dose: 175.0 mg/kg/injection, schedule: Q01DX009 (ip), vehicle: saline with Tween-80",103 % of control
O=C(O)C1CC/C=C\CCC1 (stereo not drawn),T/C,"dose: 100.0 mg/kg/injection, schedule: Q04DX003 (sc), vehicle: olive oil, sesame oil, peanut oil",100 % of control
same,T/C,"dose: 200.0 mg/kg/injection, schedule: Q04DX003 (sc), vehicle: olive oil, sesame oil, peanut oil",100 % of control
same,T/C,"dose: 400.0 mg/kg/injection, schedule: Q04DX003 (sc), vehicle: olive oil, sesame oil, peanut oil",91 % of control
O=C(O)CNC(=O)Nc1ccccc1,T/C,"dose: 25.0 mg/kg/injection, schedule: Q04DX003 (ip), vehicle: saline with Tween-80",91 % of control
same,T/C,"dose: 50.0 mg/kg/injection, schedule: Q04DX003 (ip), vehicle: saline with Tween-80",100 % of control
same,T/C,[1],100 % of control
same,T/C,[2],87 % of control
same,T/C,[3],104 % of control
O=Cc1[nH]c(=S)[nH]c(=O)c1Cc1ccc([N+](=O)[O-])cc1,T/C,[1],100 % of control
same,T/C,[2],95 % of control
same,T/C,[3],112 % of control
